Measured values as given in publication PMC6010133, “Synthesis and biological evaluation of N-arylpiperazine derivatives of 4,4-dimethylisoquinoline-1,3(2H,4H)-dione as potential antiplatelet agents” (Journal of Enzyme Inhibition and Medicinal Chemistry, 2018).
Converted amounts (≈) assume the structure as drawn.

Experiments:
[1] = test system: whole rat blood aggregation induced by ADP and adrenaline; experiment: In vitro whole blood aggregation test induced by ADP and adrenaline (Multiplate); format: cell-based; conditions: for IC50: whole rat blood, ADP and adrenaline 1.6 µM + 50 µM, read-out: B (ADP + A) IC50
Protocol: (§1) In vitro aggregation tests were conducted using freshly collected whole blood with Multiplate platelet function analyzer (Roche Diagnostics Polska Sp. z o.o., Warsaw, Poland), the five-channel aggregometer based on measurements of electric impedance. The Multiplate analyzer allows the duplicate measurement with dual electrode probes. Blood was drawn from carotid of rats with hirudin blood tube (Roche Diagnostic). 300 μL of hirudin anticoagulated blood was mixed with 300 μL pre-warmed isotonic saline solution containing studied compound in DMSO or DMSO (0.1% final) and pre-incubated for 3 min at 37 °C with continuous stirring. The agonists (ADPtest, COLtest, Roche Diagnostic) were diluted using isotonic sterile NaCl solution. Aggregation was induced by adding collagen (final concentration 1.6 µg/mL), or adrenaline and subthreshod concentration of ADP (final concentration 50 µM + 1.6 µM). Activated platelet function was recorded for 6 min. The Multiplate software analyzed the area under the curve of the clotting process of each measurement and calculated the mean values.
(§2) Data were presented as Mean ± SEM. Statistical comparisons were made by the analysis of variance (ANOVA) and significance of the differences between control group and treated groups was determined by Dunnet post hoc test. p < .05 was considered significant.
(§3) Based on the aforementioned results, the most interesting compounds (3, 4, 9, and 10) were selected for further studies. In order to evaluate the anti-platelet effects of the new compounds in vitro, freshly isolated rat whole blood was incubated with selected compounds (3–100 μM) or vehicle (DMSO), and the aggregation responses were evaluated with multiplate whole blood aggregometer by measuring impedance change. Platelet aggregation was induced by collagen or sub-threshold concentration of ADP and adrenaline. ARC-239 was used as a reference compound.
Combining adrenaline with the sub-threshold concentration of ADP produced a maximal aggregation response. The adrenaline-mediated amplification of ADP-stimulated aggregation was attenuated when rat blood was pre-incubated with 3, 9, 10, and ARC-239.

[2] = test system: whole rat blood aggregation induced by collagen; experiment: In vitro whole blood aggregation test induced by collagen (Multiplate); format: cell-based; conditions: for IC50: whole rat blood, collagen 1.6 µg/mL; for anti-platelet efficacy at lower concentration: compound at 30 μM
Protocol: as §1, §2, §3

[3] = target: alpha 1-ARs; experiment: Radioligand binding assay, displacement of [3H]prazosin on rat cerebral cortex; conditions: read-out: Affinity for alpha 1-ARs Ki ± SD
Protocol: The affinity of the obtained compounds was evaluated by radioligand binding assays (the ability to displace [3H] prazosin and [3H]clonidine from a1- and a2-AR, respectively) on rat cerebral cortex. The brains are homogenised in 20 volumes of an ice-cold 50 mM Tris–HCl buffer (pH 7.6) and is centrifuged at 20,000 g for 20 min (0–4 °C). The cell pellet is resus-pended in the Tris–HCl buffer and centrifuged again. Radioligand binding assays are performed in plates (MultiScreen/Millipore). The final incubation mixture (final volume 300 μL) consisted of 240 µl of the membrane suspension, 30 μL of [3H]prazosin (0.2 nM) or [3H]clonidine (2 nM) solution and 30 μL of the buffer containing seven to eight concentrations (1.0^−11 to 1.0^−4 M) of the tested compounds. For measuring the unspecific binding, phentolamine, 10 µM (in the case of [3H]prazosin) and clonidine, 10 μM (in the case of [3H]clonidine) are applied. The incubation is terminated by rapid filtration over glass fiber filters (Whatman GF/C) using a vacuum manifold (Millipore). The filters are then washed twice with the assay buffer and placed in scintillation vials with a liquid scintillation cocktail. Radioactivity was measured in a WALLAC 1409 DSA liquid scintillation counter. All the assays were performed in duplicate.
Subsequently, we determined the selectivity vs. alpha 1-adrenoreceptor (Table 4). The final compounds 3–11 were submitted to a radioligand binding assay, measuring the ability to displace [^3H] prazosin from alpha 1-ARs, in the rat cerebral cortex. […] On the other hand, the introduction of a hydrophobic group into meta position of the phenylpiperazine ring (3, 4, 5, 6) caused a relatively weaker decrease. […] The incorporation of a bulky substituents such as; 2,2-dimethylbenzo[d][1,3]dioxole (9), benzo[d]oxazol-2(3H)-one (10), 2H-benzo[b][1,4]oxazin-3(4H)-one (11) maintained the affinity for alpha1-ARs.

[4] = target: T1, alpha 2B-AR (Homo sapiens, UniProt P18089); experiment: Intrinsic activity assay, antagonist mode, cells with stable expression of the α2B-adrenoceptor; format: cell-based; conditions: antagonist potency, read-out: Antagonist mode (IC50 ± SEM)
T1 sequence (P18089 1-450): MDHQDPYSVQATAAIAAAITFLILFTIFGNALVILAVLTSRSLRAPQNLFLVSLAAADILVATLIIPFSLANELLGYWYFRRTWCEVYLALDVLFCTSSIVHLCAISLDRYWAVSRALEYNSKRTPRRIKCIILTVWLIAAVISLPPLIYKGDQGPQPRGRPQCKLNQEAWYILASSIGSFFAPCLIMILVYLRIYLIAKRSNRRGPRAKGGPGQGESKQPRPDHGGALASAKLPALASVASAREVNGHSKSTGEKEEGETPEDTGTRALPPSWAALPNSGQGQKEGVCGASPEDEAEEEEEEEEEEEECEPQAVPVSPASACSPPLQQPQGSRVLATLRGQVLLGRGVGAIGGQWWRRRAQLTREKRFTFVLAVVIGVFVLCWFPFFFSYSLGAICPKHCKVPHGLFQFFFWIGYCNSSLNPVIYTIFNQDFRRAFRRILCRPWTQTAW
Protocol: An intrinsic activity assay was performed according to the instructions of the manufacturer of the assay kit containing ready-to-use cells with stable expression of the α2A-adrenoceptor (In-vitrogen, Life Technologies, Carlsbad, CA, USA) or α2B-adrenoceptor (PerkinElmer, Inc, Waltham, MA, USA).
Considering that a potent blockade of alpha 2B-ARs is required for the antiplatelet effect[8] ^, [9] we began an assessment of a pharmacological profile of all the synthesized molecules (3–11) with the evaluation of their alpha 2B-ARs antagonistic properties.

[5] = Metabolic stability (liver microsomes, human); format: in vitro ADME
Protocol: (§4) The in vitro bioavailability assays were performed by Eurofins Panlabs Inc. (St Charles, USA) according to the methods reported in publications listed below:
Microsomal stability: Obach, R.S et al. (1997) J Pharmacol Exp Ther, 283:[…][35].
(§5) Concerning the described above results, for the most promising compound 3, we performed early in vitro bioavailability assays, including aqueous solubility, human plasma protein binding, human liver microsomes stability, and Caco-2 permeability (Eurofins Bioavailability panel).

[6] = Protein binding (plasma, human); format: in vitro ADME; conditions: 1.0E-05 M
Protocol: as §4
Protein binding: Banker, M.J et al. (2003) J. Pharm. Sci., 92:967–974[33],
as §5

[7] = Caco-2 permeability; format: in vitro ADME; conditions: human; Caco-2, pH 6.5/7.4; 1.0E-05 M
Protocol: as §4
Caco-2 permeability: Hidalgo, I.J et al. (1989) Gastroenterology, 96:736–749[34],
as §5

[8] = Aqueous solubility (Eurofins bioavailability panel); format: physicochemical; conditions: kinetic from dmso stock
Protocol: as §4
Solubility: Lipinski, C.A et al. (2001) Adv Drug Del Rev, 46:3–26[32],
as §5

Structure (SMILES)	IC50 [1] [nM]	IC50 [2] [nM]	Ki [3] [nM]	IC50 [4] [nM]	anti-platelet efficacy at lower concentration ([2]; collagen-induced)	further results
COc1ccccc1N1CCN(CCN2C(=O)c3ccccc3C(C)(C)C2=O)CC1 [ARC-239, reference compound]	63900 ± 21300	20700 ± 14700	0.3	8.4 ± 3.2		
CC1(C)C(=O)N(CCN2CCN(c3cccc(F)c3)CC2)C(=O)c2ccccc21 [Compound 3, 2–(2-(4–(3-Fluorophenyl)piperazin-1-yl)ethyl)-4,4-dimethylisoquinoline-1,3(2H,4H)-dione]	20500 ± 7100	26900 ± 18800	30 ± 1	61 ± 25.4	significant anti-platelet efficacies	half-life at 100 nM ([5]; 1.0E-07 M): 14.1 min; microsomal CLint at 100 nM ([5]; 1.0E-07 M, read-out: Intrinsic clearance): 14 µL/min/mg; % Compound remaining ([5]; incubation time 0 minutes): 100.0%; % Compound remaining ([5]; incubation time 15 minutes): 49%; % Compound remaining ([5]; incubation time 30 minutes): 18%; % Compound remaining ([5]; incubation time 45 minutes): 8%; % Compound remaining ([5]; incubation time 60 minutes): 6%; % Protein bound [6]: 99%; Papp A→B at 10 µM [7]: 7.7 ×10⁻⁶ cm/s; Papp B→A at 10 µM [7]: 2.6 ×10⁻⁶ cm/s; solubility ([8]; PBS, pH 7.4, aqueous buffer): 5.4 µM (≈ 2.14 µg/mL); solubility ([8]; fassgf or other biorelevant, simulated intestinal fluid, test concentration 2.0E-04 M): 68 µM (≈ 26.9 µg/mL); solubility ([8]; simulated gastric fluid): 151 µM (≈ 59.7 µg/mL)
CC1(C)C(=O)N(CCN2CCN(c3cccc(Cl)c3)CC2)C(=O)c2ccccc21 [Compound 4, 2–(2-(4–(3-Chlorophenyl)piperazin-1-yl)ethyl)-4,4-dimethylisoquinoline-1,3(2H,4H)-dione]		34500 ± 2500	93 ± 2	251 ± 71	significant anti-platelet efficacies	inhibition against ADP and adrenaline induced blood aggregation ([1]; up to 100 μM): did not exhibit any significant inhibition
CC1(C)C(=O)N(CCN2CCN(c3cccc(C(F)(F)F)c3)CC2)C(=O)c2ccccc21 [Compound 5, 4,4-Dimethyl-2–(2-(4–(3-(trifluoromethyl)phenyl)piperazin-1-yl)ethyl)isoquinoline-1,3(2H,4H)-dione]			703 ± 1	> 1000		
COc1cccc(N2CCN(CCN3C(=O)c4ccccc4C(C)(C)C3=O)CC2)c1 [Compound 6, 2–(2-(4–(3-Methoxyphenyl)piperazin-1-yl)ethyl)-4,4-dimethylisoquinoline-1,3(2H,4H)-dione]			78.4 ± 3.8	> 1000		
CC1(C)C(=O)N(CCN2CCN(c3cccc(O)c3)CC2)C(=O)c2ccccc21 [Compound 7, 2–(2-(4–(3-hydroxyphenyl)piperazin-1-yl)ethyl)-4,4-dimethylisoquinoline-1,3(2H,4H)-dione]			81.7 ± 5.5	758 ± 160		
CC1(C)C(=O)N(CCN2CCN(c3ncccn3)CC2)C(=O)c2ccccc21 [Compound 8, 4,4-Dimethyl-2–(2-(4-(pyrimidin-2-yl)piperazin-1-yl)ethyl)isoquinoline-1,3(2H,4H)-dione]			1500 ± 100	> 1000		
CC1(C)Oc2cccc(N3CCN(CCN4C(=O)c5ccccc5C(C)(C)C4=O)CC3)c2O1 [Compound 9, 2–(2-(4–(2,2-Dimethylbenzo[d][1,3]dioxol-4-yl)piperazin-1-yl)ethyl)-4,4-dimethylisoquinoline-1,3(2H,4H)-dione]	54400 ± 5400	27400 ± 5300	30 ± 0.2	47 ± 12.8	significant anti-platelet efficacies	platelet aggregation attenuated to ([2]; collagen-induced, compound at 100 μM): 59.3%
CC1(C)C(=O)N(CCN2CCN(c3cccc4[nH]c(=O)oc34)CC2)C(=O)c2ccccc21 [Compound 10, 4,4-Dimethyl-2–(2-(4–(2-oxo-2,3-dihydrobenzo[d]oxazol-7-yl)piperazin-1-yl)ethyl)isoquinoline-1,3(2H,4H)-dione]	76500 ± 5800		10.3 ± 0.3	61 ± 22.5		
CC1(C)C(=O)N(CCN2CCN(c3cccc4c3OCC(=O)N4)CC2)C(=O)c2ccccc21 [Compound 11, 4,4-Dimethyl-2–(2-(4–(3-oxo-3,4-dihydro-2H-benzo[b][1,4]oxazin-8-yl)piperazin-1-yl)ethyl)isoquinoline-1,3(2H,4H)-dione]			3 ± 0.1	> 1000		
